Like-named read-outs stand apart in the source and are kept apart here.
Assays:
[1] = test system: human lung alveolar type I epithelial cells (AT1); assay: TNF-α and nitric oxide in human lung alveolar type I epithelial cells co-treated with LPS; format: cell-based
[2] = Safety profile of AVR-48 in mice or rat pups (IV, SC, IN; MTD/NOAEL); format: in vivo; conditions: C57BL/6J (mouse), Sprague Dawley Crl:CD (rat), mouse, rat, in vivo; for MTD at 3 days: read-out: maximum tolerated dose (MTD); for NOAEL at 3 days: read-out: no-observed-adverse-effect level (NOAEL)
Description: Safety Profile of AVR-48. To assess the safety of AVR-48 (compound 8), two doses of intravenous (IV) slow bolus injections or subcutaneous (SC) injections or intranasal (IN) instillation were given to mice or rat pups (postnatal day 3-5 or P3-P5), >6 h apart. The total daily doses were up to 100 mg/kg/day IV, and up to 150 mg/kg/day SC, for 3 consecutive days. […] There was no change in any of the hematological or clinical chemistry parameters. Signs of discoloration, swelling, and macroscopic and microscopic signs of local irritation occurred at the site of administration in all treatment groups and were attributed to the administration vehicle (formulation of 10% DMSO, 20% Tetraglycol, and 20% PEG 400 in sterile water). […] Based on the parameters monitored in this study, the maximum tolerated dose (MTD) and no-observed-adverse-effect level (NOAEL) were considered to be 100 mg/kg/day via IV and 150 mg/kg/day via SC routes of dosing.
(§1) Animals. C57BL/6J mice were purchased from The Jackson Laboratory (Bar Harbor, ME, USA) and were maintained in a breeding colony at Drexel University, Philadelphia, PA, USA. Animal procedures were performed in accordance with the NIH Guide for the Care and Use of Laboratory Animals and were approved by the Institutional Animal Care and Use Committee (IACUC) of Drexel University Philadelphia, PA (Protocol No. 20706). Neonatal rat pups born from female pregnant Sprague Dawley Crl:CD (SD) rats (Charles River Laboratories, St-Constant, QC, Canada) were used for the toxicology and PK studies to evaluate safety, determine the maximum tolerated dose (MTD) and the PK profile of AVR-48. A minimum 6-day acclimation period was allowed between receipt of the animals and the start of treatment to accustom the rats to the laboratory environment. All rat studies were approved by the IACUC of ITR Laboratories, Canada (Protocol No. 74691).
(§2) Formulation of AVR-48 for efficacy and toxicokinetic studies. For the mouse dose response efficacy studies, AVR-48 was reconstituted in 0.9% sterile normal saline to give a final dose concentration of […] as a colorless solution, and injected IP (30 μl) on P2 and P4. The PLGA encapsulated AVR-48 or the GFP-tagged analog was resuspended in deionized sterile water to make a nanosuspension with final dose concentration of 0.025, 0.05 and 0.11 mg/kg/drop. The surfactant Curosurf® (Cheisi Parma, Italy), available commercially, was delivered IN at a volume of 3 μl per nostril, on P2 and P4. For the toxicokinetic study of AVR-48 in rat pups, a formulation of 10% DMSO, 20% tetraglycol, 20% PEG 400, and 50% sterile water was made fresh before administration (Shah, Das et al. 2021).
Statistical Analysis. All statistical analyses were performed using Graph Pad Prism version 7.0 (GraphPad Software, San Diego, CA). The data are expressed as the mean±SEM with n=5 to 7 mice in each group. Groups were compared with the two-tailed unpaired t-test and one- or two-way analysis of variance (ANOVA), as appropriate. P<0.05 was considered statistically significant. For the toxicology and PK study, a generalized Analysis of Variance/Covariance (ANOVA/ANCOVA) test was performed on the numerical data (3 or more animals/groups) on the study as follows: An automatic transformation was used to analyze the data for homogeneity of variance using Levene's test. Parametric and non-parametric trends were analyzed using the Williams and the Shirley-Williams tests, respectively. Homogeneous data was analyzed using the ANOVA/ANCOVA, and the significance of intergroup differences between the control and test item-treated groups was analyzed using Dunnett's test. Heterogeneous data was analyzed using Kruskal-Wallis test and the significance of intergroup differences between the control and test item-treated groups was assessed using a nonparametric Dunnett's test. All data are reported as ±SEM. […]

pre-term lamb BPD model = assay: Pre-term lamb BPD model: respiratory system mechanics by forced oscillation technique; format: in vivo
Description: Forced oscillation technique (FOT) allows non-invasive measurement of respiratory system (rs) impedance (Zrs) in uncooperative subjects by applying a pressure stimulus at the airway opening and measuring the resulting flow. The inventors have shown that FOT provides reliable noninvasive measurement of respiratory system mechanics in spontaneously breathing, normal term lambs from birth through the first 5 months of life (Dahl, Bowen et al. 2018). The methods and normal reference values defined in this study provide normal physiological context for determining the pathophysiological consequences of preterm birth.

[3] = test system: hyperoxia-exposed BPD mouse model; assay: BPD mouse model: flow cytometry of lung immune cell populations; format: in vivo
Description: AVR-48 normalizes two important innate immune cell populations in animals with BPD. Based on the affinity of AVR-48 for TLR4 and the increased TLR4 expression in AVR-48 treated BPD animals, the inventors determined if there would be an impact on immune cell recruitment to the lung interstitium. Flow cytometry was performed to determine absolute numbers of key immune cell populations in the lung of neonatal mice pups from AVIS-48-treated and untreated animals in the RA and BPD groups. […] All other cell populations were similar (FIG. 11).

[4] = PK study in rat pups by SC or IV (plasma, BALF); format: in vivo
Description: Pharmacokinetic (PK) Profile of AVR-48 (compound 8). The PK studies of AVR-48 were developed and designed in-house, by high performance liquid chromatography (HPLC), in both mouse and rat pups by IV, IP and IN dosing, to check the bioavailability of the drug formulated as solution, suspension or nanoparticle encapsulation in plasma, broncho-alveolar lavage fluid (BALF) and lung tissues.
A sustained level of AVR-48 was observed only where T1/2 was not estimable. For the IV dosed animals only, maximum concentration was followed by decline on PK Day 1 but was followed by sustained level of AVR-48 on PK Day 3. T1/2 was also not estimable. […] In summary, exposure to AVR-48 increased for 100 mg/kg/day for both routes after 3 days of twice daily administration but not for the 150 mg/kg/day groups.
as §1, §2

[5] = AVR-48-treated RA animals vs RA animals
[6] = treated vs untreated BPD animals, similar to RA control

With `CC(=O)N[C@@H]1C(Oc2ccc([N+](=O)[O-])cc2)OC(CO)C(O)C1O` (stereo partly drawn) [AVR-48] the “nitric oxide (NO) production” value ([1]; co-treated with LPS) was “decreased”, the TNF-α production ([1]; co-treated with LPS, ELISA) was “decreased” and the IL-10 level ([1]; epithelial cells) was “No significant level”. The IL-β level ([1]; epithelial cells) was “No significant level”, the MTD at 3 days ([2]; iv) was 100 mg/kg/day and the NOAEL at 3 days ([2]; iv) was 100 mg/kg/day. For the same compound, the MTD at 3 days ([2]; sc) was 150 mg/kg/day, the NOAEL at 3 days ([2]; sc) was 150 mg/kg/day and the “reactance (X7 hz)” value (pre-term lamb BPD model; 3 mg/Kg, day of life 10) was “less reactance”. The “small airway resistance (R7-20 hz)” value (pre-term lamb BPD model; 3 mg/Kg, day of life 10) was “less small airway resistance”, the “resistance (R7 hz; respiratory system)” value (pre-term lamb BPD model; 3.0 mg/Kg, day of life 10, relative to placebo) was “lower resistance” and the “all other immune cell populations in the lung” value [3, 5] was “similar”. For the same compound, the “dendritic cells in the lung” value [3, 5] was “increase”, the “macrophages in the lung” value [3, 5] was “slight, but statistically significant, decrease” and the “macrophages in the lung” value [3, 6] was “increased”. For the same compound, the “neutrophils in the lung” value [3, 6] was “decreased”, the “accumulation ratio using AUC(0-t)” value ([4]; BALF, IV dosed animals) was 2.04 and the “decline of plasma concentration” value ([4]; IV dosed animals) was “declined in a bi-exponential fashion”. The “Tmax (maximum plasma concentration)” value ([4]; Sprague Dawley Crl:CD, rat, in vivo, 150 mg/kg/day) was 60 min, the Tmax ([4]; Sprague Dawley Crl:CD, rat, in vivo, 150 mg/kg/day, Tmax (maximum plasma concentration)) was 30 min and the Tmax ([4]; Sprague Dawley Crl:CD, rat, in vivo, Tmax) was 15 to 60 min. The AUC(0-t) ([4]; Sprague Dawley Crl:CD, rat, in vivo, iv, AUC(0-t)) was 4200 ng·h/mL, the Cmax ([4]; Sprague Dawley Crl:CD, rat, in vivo, maximum concentration (Cmax)) was 891 to 1070 ng/mL and the accumulation in plasma ([4]; after 3 days of twice daily administration) was “no accumulation of the drug”.

— patent US12440471B2, “Compositions and methods for the treatment of bronchopulmonary dysplasia (BPD) and BPD-associated pulmonary hypertension” (AyuVis Research, Inc., priority 2021, dated 2025)
